Read-outs that look alike come from different tables or passages of the source.
Key:
[1] = tested on: FaDu tumour xenograft; test: Tumour Growth Delay, FaDu tumour xenograft-bearing animals, compound ± radiation (TGD-ER); format: in vivo; details: PO
Method: FaDu tumour xenograft-bearing animals were monitored for tumour growth and once average tumour size reached approximately 100-250 mm3, animals were assigned to treatment cohorts using stratified randomization. […]
For BID dosing regimens, at 8 h following the first injection, animals were again administered with test compound at the same dose as their previous administration. Animals were weighed and had tumours measured using calipers three times weekly until the endpoint of maximum tumour volume, 1000 mm3, was reached and animals were euthanized. Tumour volumes were calculated according to the equation L×W^2/2 with the length (mm) being the longer axis of the tumour; in the case that no tumour was palpable, tumour volumes were recorded as 0 mm^3.
Data were calculated as tumour growth normalized to day 0 measurements, with time to tumour doubling determined. Average time to tumour doubling for each group was used to determine a Tumour Growth Delay Enhancement Ratio (TGD-ER): the time to doubling for treatment groups were divided by the time to doubling for irradiation-alone groups to determine group-specific TGD-ER values, and these were assigned scores based on defined response ranges: values>2.5=A, 1-2.5=B, <1=C.

[2] = Pharmacokinetic study in male Sprague-Dawley rats (IV and PO), plasma; format: in vivo, rat; details: for AUC(0-t) / Cmax at 5 min / half-life / AUC(0-inf): male, Sprague-Dawley; for AUC(0-t) / Cmax at 5 min / half-life / AUC(0-inf) / AUC—% Extrap—obs / Cl_obs / Vz_obs: rat plasma; for AUC(0-inf): read-out: AUCINF—obs; for F: rat
Method: Pharmacokinetic studies were conducted to estimate plasma concentrations obtained after oral gavage (PO) and intravenous (IV) single administration of compounds administered to male Sprague-Dawley rats. Six (6) rats were administered for each compound, route and dose, and plasma was collected at 12 timepoints over a 24 hr period for IV, and 12 timepoints over a 48 hr period for PO. Note that plasma was collected from only 3 animals per timepoint (n=3 for timepoints up to 10 hours, and n=3 for timepoints from 16 h to end of study). Dosing volumes were 5 mL/kg for IV and 10 mL/kg for PO gavage. IV compounds for administration were in solutions, whereas PO compounds were in solution or suspension.
The in-vivo study plasma samples were analyzed using Ultra Performance Liquid Chromatography (UPLC) with tandem mass spectrometry (MS/MS) detection in multiple reaction monitoring (MRM) mode. A generic bioanalytical method involving plasma sample extraction and cleanup by protein precipitation with acetonitrile was used followed by UPLC-MS/MS analysis.
A brief example of a generic bioanalytical UPLC-MS/MS method used for analysis of compounds in the in-vivo study plasma samples is as follows. Plasma samples were spiked with internal standard prior to extraction and cleanup by protein precipitation with ice cold acetonitrile containing 0.1% (v/v) ammonium hydroxide at a ratio of 3:1 (solvent:plasma) and centrifuged at 18213 rcf for 15 minutes at 4° C. to pellet precipitates. Aliquots of supernatants were transferred to a 96-well plate and evaporated to dryness at 40° C. under a stream of nitrogen gas. Samples were reconstituted in 50:50 acetonitrile/10 mM ammonium acetate buffer pH 8, mixed thoroughly and analyzed using Ultra Performance Liquid Chromatography (UPLC) with tandem mass spectrometry (MS/MS) detection in multiple reaction monitoring (MRM) mode. Matrix-matched calibration standards and quality control (QC) samples were prepared in naïve C57Bl/6 mouse plasma. The UPLC column used was Waters Acquity UPLC BEH C18 1.7 um, 2.1 mm×50 mm (with guard column). The UPLC mobile phase consisted of: Mobile phase A: 10 mM ammonium acetate in Water pH 8, and Mobile phase B: Acetonitrile. Separation was accomplished with a linear gradient of 5% mobile phase B to 95% mobile phase B in 2 min, and a flow rate of 0.35 mL/min. The MS/MS data acquisition was accomplished using 3 MRM Transitions in ESI+ mode. Parent ion mass 508.37 m/z-to-Daughter ions (m/z) 117.05, 232.13 and 270.22. The quantitation of concentrations in test samples was achieved by matrix-matched calibration with normalization using an internal standard. Data acquisition and analysis were performed using Waters MassLynx software with TargetLynx application manager.
Estimation of PK parameters was performed using independent noncompartmental model method by PHOENIX WinNonlin software.

Compound | AUC(0-t) ([2]; IV, 3 mg/kg) | Cmax at 5 min ([2]; IV, 3 mg/kg) | half-life ([2]; IV, 3 mg/kg) | AUC(0-inf) ([2]; IV, 3 mg/kg) | AUC(0-t) ([2]; PO, 3 mg/kg) | Cmax at 5 min ([2]; PO, 3 mg/kg) | half-life ([2]; PO, 3 mg/kg) | AUC(0-inf) ([2]; PO, 3 mg/kg) | AUC(0-t) ([2]; PO, 10 mg/kg) | Cmax at 5 min ([2]; PO, 10 mg/kg) | half-life ([2]; PO, 10 mg/kg) | AUC(0-inf) ([2]; PO, 10 mg/kg) | AUC(0-t) ([2]; PO, 30 mg/kg) | Cmax at 5 min ([2]; PO, 30 mg/kg) | half-life ([2]; PO, 30 mg/kg) | AUC(0-inf) ([2]; PO, 30 mg/kg) | AUC—% Extrap—obs ([2]; IV, 3 mg/kg) | Cl_obs ([2]; IV, 3 mg/kg) | Vz_obs ([2]; IV, 3 mg/kg) | AUC—% Extrap—obs ([2]; PO, 3 mg/kg) | further results
CN(C)C(=O)COc1cnc(N[C@H]2CC[C@@H](Oc3nc(N4CCOCC4)cc4ncccc34)CC2)nc1 [Compound 54, N,N-Dimethyl-2-((2-(((1s,4s)-4-((7-morpholino-1,6-naphthyridin-5-yl)oxy)cyclohexyl)amino)pyrimidin-5-yl)oxy)acetamide] | – | – | – | – | – | – | – | – | – | – | – | – | – | – | – | – | – | – | – | – | TGD-ER Range Score ([1]; 10 mpk + 10 Gy): B (1-2.5=B); TGD-ER Range Score ([1]; 30 mpk + 10 Gy): A (values>2.5=A); TGD-ER Range Score ([1]; 100 mpk + 10 Gy): B (1-2.5=B)
O=C(COc1cnc(N[C@H]2CC[C@@H](Oc3nc(N4CCOCC4)cc4ncccc34)CC2)nc1)N1CCOCC1 [Compound 61, 1-Morpholino-2-((2-(((1s,4s)-4-((7-morpholino-1,6-naphthyridin-5-yl)oxy)cyclohexyl)amino)pyrimidin-5-yl)oxy)ethan-1-one] | 912 ng·h/mL | 1600 ng/mL | 89.4 min | 913 ng·h/mL | 241 ng·h/mL | 87.5 ng/mL | 341 min | 330 ng·h/mL | 1070 ng·h/mL | 235 ng/mL | 158 min | 1220 ng·h/mL | 5760 ng·h/mL | 655 ng/mL | 824 min | 15800 ng·h/mL | 0.10% | 54.761 mL/min/kg | 7056.79 mL/kg | 26.80% | Cl_obs ([2]; PO, 3 mg/kg): 151.581 mL/min/kg; Vz_obs ([2]; PO, 3 mg/kg): 74544.30 mL/kg; AUC—% Extrap—obs ([2]; PO, 10 mg/kg): 12.39%; Cl_obs ([2]; PO, 10 mg/kg): 136.306 mL/min/kg; Vz_obs ([2]; PO, 10 mg/kg): 31192.00 mL/kg; AUC—% Extrap—obs ([2]; PO, 30 mg/kg): 63.5%; Cl_obs ([2]; PO, 30 mg/kg): 31.6652 mL/min/kg; Vz_obs ([2]; PO, 30 mg/kg): 37654.53 mL/kg; F ([2]; PO, 3 mg/kg): 26%; F ([2]; PO, 10 mg/kg): 35%; F ([2]; PO, 30 mg/kg): 63%; TGD-ER Range Score ([1]; (30 mpk + 2 Gy) Q5D): A (values>2.5=A); TGD-ER Range Score ([1]; (30 mpk) Q5D): C (<1=C)
CN1CCN(CCOc2cnc(N[C@H]3CC[C@@H](Oc4nc(N5CCOCC5)cc5ncccc45)CC3)nc2)CC1 [Compound 69, 5-(2-(4-Methylpiperazin-1-yl)ethoxy)-N-((1s,4s)-4-((7-morpholino-1,6-naphthyridin-5-yl)oxy)cyclohexyl)pyrimidin-2-amine] | 488 ng·h/mL | 183 ng/mL | 289 min | 501 ng·h/mL | 305 ng·h/mL | 27.2 ng/mL | 169 min | 308 ng·h/mL | 1550 ng·h/mL | 140 ng/mL | 194 min | 1570 ng·h/mL | 5870 ng·h/mL | 482 ng/mL | 388 min | 5890 ng·h/mL | 2.61% | 99.8872 mL/min/kg | 41648.41 mL/kg | 1.07% | Cl_obs ([2]; PO, 3 mg/kg): 162.417 mL/min/kg; Vz_obs ([2]; PO, 3 mg/kg): 39567.80 mL/kg; AUC—% Extrap—obs ([2]; PO, 10 mg/kg): 1.16%; Cl_obs ([2]; PO, 10 mg/kg): 106.252 mL/min/kg; Vz_obs ([2]; PO, 10 mg/kg): 29721.18 mL/kg; AUC—% Extrap—obs ([2]; PO, 30 mg/kg): 0.37%; Cl_obs ([2]; PO, 30 mg/kg): 84.9088 mL/min/kg; Vz_obs ([2]; PO, 30 mg/kg): 47527.84 mL/kg; F ([2]; PO, 3 mg/kg): 62%; F ([2]; PO, 10 mg/kg): 95%; F ([2]; PO, 30 mg/kg): 120%; TGD-ER Range Score ([1]; 30 mpk + @4 h 10 Gy): C (<1=C); TGD-ER Range Score ([1]; 30 mpk BID + 10 Gy): B (1-2.5=B); TGD-ER Range Score ([1]; 100 mpk + @4 h 10 Gy): B (1-2.5=B); TGD-ER Range Score ([1]; (30 mpk + 2 Gy) Q5D): A (values>2.5=A); TGD-ER Range Score ([1]; (30 mpk) Q5D): C (<1=C)
O=C(COc1cnc(N[C@H]2CC[C@@H](Oc3nc(N4CCOCC4)cc4ncccc34)CC2)nc1)N1CCC1 [Compound 75, 1-(Azetidin-1-yl)-2-((2-(((1s,4s)-4-((7-morpholino-1,6-naphthyridin-5-yl)oxy)cyclohexyl)amino)pyrimidin-5-yl)oxy)ethan-1-one] | – | – | – | – | – | – | – | – | – | – | – | – | – | – | – | – | – | – | – | – | TGD-ER Range Score ([1]; 30 mpk BID + 10 Gy): B (1-2.5=B)
CN(C)C(=O)Cn1ccc2nc(N[C@H]3CC[C@@H](Oc4nc(N5CCOCC5)cc5ncccc45)CC3)ncc21 [Compound 86, N,N-Dimethyl-2-(2-(((1s,4s)-4-((7-morpholino-1,6-naphthyridin-5-yl)oxy)cyclohexyl)amino)-5H-pyrrolo[3,2-d]pyrimidin-5-yl)acetamide] | 371 ng·h/mL | 886 ng/mL | 40.2 min | 374 ng·h/mL | 71.6 ng·h/mL | 28.2 ng/mL | 155 min | 78.4 ng·h/mL | 1290 ng·h/mL | 203 ng/mL | 143 min | 1490 ng·h/mL | 14100 ng·h/mL | 1600 ng/mL | 75.6 min | 14100 ng·h/mL | 0.91% | 133.623 mL/min/kg | 7725.22 mL/kg | 8.66% | Cl_obs ([2]; PO, 3 mg/kg): 637.8442 mL/min/kg; Vz_obs ([2]; PO, 3 mg/kg): 142794.45 mL/kg; AUC—% Extrap—obs ([2]; PO, 10 mg/kg): 13.08%; Cl_obs ([2]; PO, 10 mg/kg): 111.962 mL/min/kg; Vz_obs ([2]; PO, 10 mg/kg): 23132.91 mL/kg; AUC—% Extrap—obs ([2]; PO, 30 mg/kg): 0.0%; Cl_obs ([2]; PO, 30 mg/kg): 35.5335 mL/min/kg; Vz_obs ([2]; PO, 30 mg/kg): 3877.55 mL/kg; F ([2]; PO, 3 mg/kg): 19%; F ([2]; PO, 10 mg/kg): 105%; F ([2]; PO, 30 mg/kg): 379%; TGD-ER Range Score ([1]; 30 mpk BID + 10 Gy): B (1-2.5=B); TGD-ER Range Score ([1]; (30 mpk + 2 Gy) Q5D): A (values>2.5=A); TGD-ER Range Score ([1]; (30 mpk) Q5D): B (1-2.5=B)
